Tested on: FGF10
Assay: Analysis of mRNA expression of FGF10 in human dermal fibroblasts (qPCR)
Type: cell-based
Conditions: for Expression level (% relative to control): FGF10 mRNA, human dermal fibroblasts, 48 hours; for mRNA expression of FGF 10: human fibroblasts treated with the single substance, result in words
Procedure: Human dermal fibroblasts (neonatal) were purchased from Lonza and then cultured in a carbon dioxide incubator at 37° C. and 5% carbon dioxide. In this case, as a medium for culturing, a medium containing Dulbecco's modified eagle medium (DMEM; Thermo Fisher Scientific) with 10% fetal bovine serum (FBS) and 1% antibiotics (penicillin/streptomycin) was used. Afterward, 20000 cells were seeded in a 6-well plate, and 24 hours later, the DMEM culture medium was treated with each sample having compositions shown in Tables 1 and 2 and cultured again for another 48 hours. As a control, a DMEM culture medium not including any other components was used.

SMILES	Expression level (% relative to control) (Table 1, sample at 8 ppm) [%]	Expression level (% relative to control) (Table 2, sample at 8 ppm) [%]	mRNA expression of FGF 10	Expression level (% relative to control) (Table 1, sample at 0.2 ppm) [%]	Expression level (% relative to control) (Table 2, sample at 0.2 ppm) [%]
Nc1ncnc2c1ncn2[C@@H]1O[C@H](CO)[C@@H](O)[C@H]1O [Adenosine, reference compound]	88	88	no effect on increasing the expression of FGF 10	–	–
C=C1CC[C@@H]2[C@](C)(CO)[C@H](O)CC[C@@]2(C)[C@@H]1C/C=C1/C(=O)OC[C@H]1O [Andrographolide, andrographolide]	–	–	promoted	141	–
Nc1ncnc2c1ncn2[C@@H]1O[C@H](CO)C[C@H]1O [Cordycepin, cordycepin]	148	–	promoted	–	102
O=c1c(O)c(-c2ccc(O)c(O)c2)oc2cc(O)cc(O)c12 [Quercetin, quercetin]	–	–	promoted	–	63

Source: patent publication US20240261318A1, “ANTI-AGING COSMETIC COMPOSITION” (LG HOUSEHOLD & HEALTH CARE LTD., priority 2021, published 2024)
